Data taken from US11447475B2, “Isoxazole N-linked carbamoyl cyclohexyl acids as LPA antagonists” (BRISTOL-MYERS SQUIBB COMPANY, priority 2017, dated 2022).
Read-outs that look alike come from different tables or passages of the source.

What was measured:
UUO mice = UUO mice treated with the antagonist, compared with LPA1 (−/−) mice; cited from earlier work
[1] = test system: pancreatic cancer cell lines; conditions: in response to LPA and peritoneal fluid (ascites) from pancreatic cancer patients; cited from earlier work
[2] = test system: human foetal lung fibroblasts; conditions: induced by BAL obtained from IPF patients; cited from earlier work
[3] = test system: highly peritoneal metastatic pancreatic cancer cell line; conditions: LPA-induced and ascites-induced; cited from earlier work
[4] = test system: mouse epithelial renal cell line, MCT; conditions: LPA treatment of MCT cells, co-treatment with antagonist; cited from earlier work
IPF patients = conditions: 26-week clinical trial in IPF patients; cited from earlier work
human LPA1 = biological target: T1, human LPA1 (Homo sapiens, UniProt Q92633); experiment: LPA1 functional antagonist assay (calcium flux); assay type: cell-based; conditions: read-out: hLPA1 IC50
T1 construct: expressed in transfected cells; host or cells: Chinese hamster ovary (CHO) cells
Description: The effectiveness of compounds of the present invention as LPA1 inhibitors can be determined in an LPA1 functional antagonist assay as follows:
Chinese hamster ovary cells overexpressing human LPA1 were plated overnight (15,000 cells/well) in poly-D-lysine coated 384-well microplates (Greiner bio-one, Cat #781946) in DMEM/F12 medium (Gibco, Cat #11039). Following overnight culture, cells were loaded with calcium indicator dye (AAT Bioquest Inc, Cat #34601) for 30 minutes at 37° C. The cells were then equilibrated to room temperature for 30 minutes before the assay. Test compounds solubilized in DMSO were transferred to 384 well non-binding surface plates (Corning, Cat #3575) using the Labcyte Echo acoustic dispense and diluted with assay buffer [1×HBSS with calcium/magnesium (Gibco Cat #14025-092), 20 mM HEPES (Gibco Cat #15630-080) and 0.1% fatty acid free BSA (Sigma Cat #A9205)] to a final concentration of 0.5% DMSO. Diluted compounds were added to the cells by FDSS6000 (Hamamatsu) at final concentrations ranging from 0.08 nM to 5 μM. and were then incubated for 20 min at room temperature at which time LPA (Avanti Polar Lipids Cat #857130C) was added at final concentrations of 10 nM to stimulate the cells. […] IC50 values were determined by fitting data to a 4-parameter logistic equation (GraphPad Prism, San Diego Calif.).

nerve-injured mice = conditions: pretreatment; cited from earlier work

T1 sequence (Q92633 whole entry): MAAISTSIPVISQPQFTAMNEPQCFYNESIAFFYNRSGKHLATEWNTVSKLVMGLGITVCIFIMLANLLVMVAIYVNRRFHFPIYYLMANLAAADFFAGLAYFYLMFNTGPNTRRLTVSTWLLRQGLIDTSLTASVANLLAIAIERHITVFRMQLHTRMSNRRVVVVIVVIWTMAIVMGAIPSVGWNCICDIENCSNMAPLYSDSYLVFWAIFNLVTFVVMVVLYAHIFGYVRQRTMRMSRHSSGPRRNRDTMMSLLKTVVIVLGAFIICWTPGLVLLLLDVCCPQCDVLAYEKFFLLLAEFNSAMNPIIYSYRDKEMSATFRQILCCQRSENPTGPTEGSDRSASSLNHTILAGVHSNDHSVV

Compound: Cc1noc(-c2ccc(CSCCC(=O)O)cc2)c1NC(=O)OC(C)c1ccccc1Cl (centres unmarked) [Ki16425]
- development of renal fibrosis (UUO mice): closely resembled the profile of LPA1 (−/−) mice
- in vitro migration [1]: effectively blocked
- chemotaxis of human foetal lung fibroblasts [2]: blocked
- invasion activity [3]: blocked
- induction of CTGF expression [4]: almost completely suppressed

Compound: Cc1noc(-c2ccc(-c3ccc(C4(C(=O)O)CC4)cc3)cc2)c1NC(=O)O[C@H](C)c1ccccc1 [BMS-986020]
- rate of FVC (forced vital capacity) decline (IPF patients): significantly reduce

Compound: Cc1cccc(COC(=O)NCc2c(C)noc2-c2ccc(O[C@H]3CCC[C@H](C(=O)O)C3)cn2)c1 [Example 5]
- IC50 (human LPA1): 25 nM

Compound: CCCCCOC(=O)NCc1c(C)noc1-c1ccc(O[C@H]2CCC[C@H](C(=O)O)C2)c(C)n1 [Example 43]
- IC50 (human LPA1): 8 nM

Compound: Cc1noc(-c2ccc(O[C@H]3CCC[C@H](C(=O)O)C3)cc2)c1CN(C)C(=O)OCc1ccccc1 [Example 13]
- IC50 (human LPA1): 63 nM

Compound: Cc1noc(-c2ccc(O[C@H]3CCC[C@H](C(=O)O)C3)cn2)c1CNC(=O)OCc1ccccc1 (single isomer, unassigned) [Example 56]
- IC50 (human LPA1): 4 nM

Compound: Cc1nc(-c2onc(C)c2CNC(=O)OCc2ccccc2)ccc1O[C@H]1CCC[C@H](C(=O)O)C1 [Example 48]
- IC50 (human LPA1): 5 nM

Compound: C[C@@H](N)[C@H]1CC[C@H](C(=O)Nc2ccncc2)CC1 [Example Y-27632]
- allodynia and hyperalgesia (nerve-injured mice): completely abolished

Compound: CCCCCCOC(=O)NCc1c(C)noc1-c1ccc(O[C@H]2CCC[C@H](C(=O)O)C2)c(C)n1 [Example 44]
- IC50 (human LPA1): 6 nM

Compound: Cc1noc(-c2ccc(O[C@@H]3CCC[C@@H](C(=O)O)C3)cc2)c1CNC(=O)OCCC(C)C (racemic) [Example 24]
- IC50 (human LPA1): 63 nM

Compound: Cc1noc(-c2ccc(O[C@H]3CCC[C@@H](C(=O)O)C3)cc2)c1NC(=O)O[C@H](C)C1CC1 (racemic) [Example 33]
- IC50 (human LPA1): 84 nM

Compound: Cc1noc(-c2ccc(O[C@@H]3CCC[C@@H](C(=O)O)C3)cc2)c1CNC(=O)OCC(C)(C)C (racemic) [Example 26]
- IC50 (human LPA1): 334 nM

Compound: Cc1noc(-c2ccc(O[C@H]3CCC[C@H](C(=O)O)C3)cn2)c1CNC(=O)OCc1ccc(F)cc1 [Example 1, (1S,3S)-3-((6-(4-(((((4-Fluorobenzyl)oxy)carbonyl)amino)methyl)-3-methylisoxazol-5-yl) Pyridin-3-yl)oxy)cyclohexanecarboxylic Acid]
- IC50 (human LPA1; CHO cells overexpressing human LPA1, inhibition of calcium flux induced by 10 nM LPA): 9 nM
